Measured values: patent US5236955A, “Anti-fungal agent” (Washington University, priority 1992, dated 1993)

Key:
[1] = tested on: a variety of fungal species, including C. albicans; conditions: Sabouraud dextrose agar; cited from earlier work
C. neoformans [2] = assay: Growth of C. neoformans cultures (absorbance at 600 nm); format: cell-based, Cryptococcus neoformans; conditions: single 300 μM dose, exponential phase, 30° C., SAB, up to 24 h
Procedure: (§1) Panel A, survey of the effects of several oxatetradecanoic acids on the growth of C. neoformans. A culture of C. neoformans was grown at 30° C. in SAB media to midlog phase (A600 ~0.5). A single dose of fatty acid was then added to subcultures (final concentration=300 μM). EtOH(0.1%) was used as a negative control. Amphotericin B (AmB) was added (final concentraton=55 μM) as a positive control. Aliquots were withdrawn from the subcultures 0, 0.5, 2, 4, 7, 21, and 24 h after these additions and then absorbance at 600 nm was measured. All assays were done in duplicate or triplicate. A representative test is shown. Panel B, survey of the effects of oxatetradecanoic acids, dioxatetradecanoic acids and oxatridecanoic acids on the viability of C. neoformans. Fatty acid analog was added to the cultures as in Panel A. Aliquots were withdrawn 0.5, 2, 4, 7 or 8, and 24 h later and plated on SAB-agar at various dilutions to determine the number of viable organisms/ml culture. All assays were done in duplicate. Data from a representative test are expressed as the ratio of viable cells in treated cultures relative to a control culture that received 0.1% EtOH. A positive control culture received a single dose of amphotericin B (55 μM); Panel C, dose-dependent reduction in the viability of C. neoformans after addition of 4-oxatetradecanoic acid (O4) to cultures during log-phase growth at 30° C. in SAB. A single dose of the analog was given at T=0 h in the amount indicated and aliquots of the culture were withdrawn at various times to determine the number of viable cells. All assays were done in triplicate. A representative test is shown.
Saccharomyces cerevisiae strain YM2061 (MATa ura3-52 his3Δ200 ade2-101 lys2-801 met LEU2::pRY181 can1; Flick and Johnston, Mol. Cell. Biol. 10, 4757-4769 (1990), Candida albicans strain B311 (obtained from the American Type Tissue Culture, Rockville, Md.), or Cryptococcus neoformans strain L210425 (a clinical isolate that is part of the permanent culture collection of the Mycology Laboratory, Barnes Hospital, St. Louis, Mo.) were grown overnight at 30 C. The S. cerevisiae strain was incubated in YPD medium (1% bacto-yeast extract, Gibco, Long Island, N.Y.), 2% bacto-peptone (Gibco), 2% dextrose). The C. albicans and C. neoformans strains were grown in Sabouraud's media (SAB; 2% (w/v) dextrose, 1% bacto-peptone). The following morning the cultures were diluted into fresh medium to the desired density at 600 nm (early log phase), and subsequently incubated in a rotary shaker at 30° C. until an A600 =0.5 (mid log phase) was achieved. The culture was then divided into 10 ml aliquots. A single 10 μl aliquot of a stock solution of fatty acid analog (prepared in various concentrations using absolute ethanol) was added to the culture so that the final concentration of the compound was 100-500 μM (T=0). Ten microliters of ethanol alone was added to one 10 ml culture which served as the negative control. […] Cell viability was determined at each of these time points by (i) serially diluting the aliquot in 0.15M NaCl and counting cell number in a hemocytometer and (ii) plating 2-3 of the dilutions in triplicate onto plates of SAB/agar (C. albicans and C. neoformans) or YPD/agar (S. cerevisiae). […] The data were expressed as the ratio of viable cells/ml in the fatty acid analog treated subculture to the number of viable cells/ml in the negative (ethanol) control culture. […]

C. neoformans [3] = assay: Viability of C. neoformans (viable cells relative to EtOH control culture); format: cell-based, Cryptococcus neoformans; conditions: 300 μM single dose; for fungicidal / fungistatic effect on C. neoformans: screening assay; for log reduction at 300 µM: Cryptococcus neoformans, relative to 0.1% EtOH control, read-out: decrease in viable cells (converted)
Procedure: as §1
Saccharomyces cerevisiae strain YM2061 (MATa ura3-52 his3Δ200 ade2-101 lys2-801 met LEU2::pRY181 can1; Flick and Johnston, Mol. Cell. Biol. 10, 4757-4769 (1990), Candida albicans strain B311 (obtained from the American Type Tissue Culture, Rockville, Md.), or Cryptococcus neoformans strain L210425 (a clinical isolate that is part of the permanent culture collection of the Mycology Laboratory, Barnes Hospital, St. Louis, Mo.) were grown overnight at 30 C. The S. cerevisiae strain was incubated in YPD medium (1% bacto-yeast extract, Gibco, Long Island, N.Y.), 2% bacto-peptone (Gibco), 2% dextrose). The C. albicans and C. neoformans strains were grown in Sabouraud's media (SAB; 2% (w/v) dextrose, 1% bacto-peptone). The following morning the cultures were diluted into fresh medium to the desired density at 600 nm (early log phase), and subsequently incubated in a rotary shaker at 30° C. until an A600 =0.5 (mid log phase) was achieved. The culture was then divided into 10 ml aliquots. A single 10 μl aliquot of a stock solution of fatty acid analog (prepared in various concentrations using absolute ethanol) was added to the culture so that the final concentration of the compound was 100-500 μM (T=0). Ten microliters of ethanol alone was added to one 10 ml culture which served as the negative control. Amphotericin B (AmB; in the form of Fungizone, Squibb) was added (final concentration=55 μM) to another culture which served as the positive control. At T=0 and 0.5-24 h after addition of fatty acid analog to the subcultures, an aliquot was removed for determining the density of the subculture at 600 nm. Cell viability was determined at each of these time points by (i) serially diluting the aliquot in 0.15M NaCl and counting cell number in a hemocytometer and (ii) plating 2-3 of the dilutions in triplicate onto plates of SAB/agar (C. albicans and C. neoformans) or YPD/agar (S. cerevisiae). These plates were subsequently incubated at 30° C. for 24-48 hr to allow for the growth of colonies. The data were expressed as the ratio of viable cells/ml in the fatty acid analog treated subculture to the number of viable cells/ml in the negative (ethanol) control culture.

[4] = tested on: C. albicans N-myristoylproteins; assay: Metabolic labeling of cellular N-myristoylproteins with tritiated fatty acids; format: cell-based; conditions: tritiated analog, 1 h, 30° C.
Procedure: (§2) Cells were labeled for 1 h with fatty acids of equal specific activity. Total cellular proteins were reduced, denatured and subjected to SDS-PAGE. Gels were treated overnight with 1 N hydrocylamine (pH 10) at room temperature followed by EN^3 HANCE. Fluorography was performed at -80° C. The exposure time for all gels was identical (2 weeks) as was the total amount of cellular protein added to each lane (100 μg).
(§3) Analysis of the incorporation of exogenous fatty acids into cellular proteins--Cultures of S. cerevisiae YM2061, C. albicans B311, and C. neoformans L210425 were grown overnight at 30° C. in YPD or SAB broth. In the morning, C. albicans and C. neoformans were diluted to an A600 =0.6. All cultures were subsequently shaken at 30° C. until they achieved an A600 =1.2. A 5 ml aliquot of each culture was then incubated at 30° C. with 100 μCi/ml of either [9,10(n)^3 H]myristate (NEN Research Products, Dupont, Boston, Mass.); [6,7(n)^3 H]4-oxatetradecanoate; [9,10(n)^3 H]6-oxatetradecanoate;[9,10(n)^3 H]11-oxatetradecanoate; or [10,11(n)^3 H]13-oxatetradecanoate (the final specific activity of all tritiated fatty acids=30 Ci/mmol, their final concentration=3.3 μM). The cultures were then chilled on ice for 5 min and the cells harvested by centrifugation at 4000×g for 5 min. The pellet was washed by gentle vortexing in 1 ml of phosphate buffered saline (PBS, maintained at 4° C.). The yeast cells were then pelleted by centrifugation (as above) and broken open by vortexing with 500 μm glass beads in a 200 μl solution containing 240 mM Tris-HCl, pH 6.8, 2% SDS, 0.4% β-mercaptoethanol, 0.002% bromophenol blue, and 10% glycerol. The solution was then boiled for 5 min and cellular debris was removed by centrifugation at 12,000×g for 10 min. One hundred μg [Lowry et al., J. Biol. Chem. 193, 265-275 (1951)] of lysate protein from each sample was subjected to denaturation, reduction and electrophoresis through 12% polyacrylamide gels containing 0.1% SDS [Laemmli, Nature 227, 680-685 (1970)]. Duplicate gels were incubated overnight with 1M Tris, pH 7.4, or 1N hydroxylamine, pH 10. Fluorography was performed by treating gels with EN^3 HANCE (NEN Research Products, Dupont) and, following drying, exposing them to Kodak XAR film at -80° C.

[5] = tested on: C. neoformans N-myristoylproteins; assay: as above; format: cell-based; conditions: tritiated analog, 1 h, 30° C.
Procedure: as §2, §3

[6] = tested on: S. cerevisiae N-myristoylproteins; assay: as above; format: cell-based; conditions: tritiated analog, 1 h, 30° C.
Procedure: as §2, §3

[7] = target: T1, human myristoylCoA:protein N-myristoyltransferase (NMT) (Homo sapiens, UniProt P30419); conditions: cited from earlier work
T1 sequence (P30419 1-496): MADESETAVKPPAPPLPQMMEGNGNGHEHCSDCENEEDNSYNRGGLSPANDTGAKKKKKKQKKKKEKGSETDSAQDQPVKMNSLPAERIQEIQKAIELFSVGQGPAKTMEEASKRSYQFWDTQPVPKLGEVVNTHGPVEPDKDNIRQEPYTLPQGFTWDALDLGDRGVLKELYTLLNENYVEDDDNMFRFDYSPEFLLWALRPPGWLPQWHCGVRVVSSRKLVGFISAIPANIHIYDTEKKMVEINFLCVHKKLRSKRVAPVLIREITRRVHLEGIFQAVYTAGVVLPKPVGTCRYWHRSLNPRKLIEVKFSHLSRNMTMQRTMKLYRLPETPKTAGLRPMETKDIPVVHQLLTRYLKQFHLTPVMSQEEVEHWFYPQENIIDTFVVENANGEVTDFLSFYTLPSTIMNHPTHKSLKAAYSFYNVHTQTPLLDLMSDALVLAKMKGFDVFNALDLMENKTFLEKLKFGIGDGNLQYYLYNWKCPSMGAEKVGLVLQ

[8] = tested on: human acyl CoA synthetase; conditions: cited from earlier work
HIV-1 = conditions: cited from earlier work

CCCCCCCCOCC(=O)O [3-oxaundecanoic acid, reference compound]
effect on growth of fungal species [1]: broadest spectrum and highest potency

CCCCCCCCCCCOCC(=O)O [O3, 3-oxatetradecanoic acid]
effect on growth of C. neoformans, as determined by optical density (C. neoformans [2]): intermediate degrees of growth retardation
fungicidal / fungistatic effect on C. neoformans (C. neoformans [3]): fungicidal
log reduction at 300 µM (C. neoformans [3]): 1
effect on growth of fungal species [1]: inhibited growth

CCCCCCCCOCCCCC(=O)O [O6, 6-Oxatetradecanoic acid]
effect on growth of C. neoformans, as determined by optical density (C. neoformans [2]): intermediate degrees of growth retardation
time needed to produce the decrease in viable cells (C. neoformans [3]): 4 h
fungicidal / fungistatic effect on C. neoformans (C. neoformans [3]): fungicidal
log reduction at 300 µM (C. neoformans [3]): 1
labeling of C. albicans N-myristoylproteins versus [3H]myristate [4]: barely labeled
labeling of C. neoformans N-myristoylproteins versus [3H]myristate [5]: more intense labeling of 20 and 16 kDa C. neoformans N-myristoylproteins than did myristate
labeling of S. cerevisiae N-myristoylproteins versus [3H]myristate [6]: failed to label

COCCCCCCCCCCCC(=O)O [O13, 13-oxatetradecanoic acid]
fungicidal / fungistatic effect on C. neoformans (C. neoformans [3]): no measurable effect on the growth
incorporation into the 55 kDa Gpal polypeptide [6]: not
labeling of the 20 kDa Arfs [6]: comparable intensity
substrate for human NMT [7]: is a substrate
substrate for human acyl CoA synthetase [8]: is a substrate
HIV-1 replication (HIV-1; acutely and chronically infected human T-lymphocyte cell lines): inhibits HIV-1 replication
cellular toxicity at HIV-1 inhibiting doses (HIV-1; human T-lymphocyte cell lines): do not cause cellular toxicity
